tested on: Influenza strain A549 A/WSN/33 (H1N1); test: Influenza Antiviral Assay; format: cell-based, Influenza A virus; details: Influenza A virus, A549, 20 h, neuraminidase fluorescence readout, read-out: % Inhibition

`Cc1c(O)c(=O)c(C(=O)O)nn1CCc1ccccc1` [Compound 782] and `CC1(C)CCC(Cn2cc(O)c(=O)c(C(=O)O)n2)(c2ccccc2)C1` (centres unmarked) [Compound 786] cannot be ordered by EC50: over 100000 nM for the first, over 100000 nM for the second.

`CNC(=O)c1nn(CC2(n3ccc4ccc(C)nc43)CCCC2)cc(O)c1=O` [Compound 853] and `CNC(=O)c1nn(CC2(n3c(C)cc4cccnc43)CCCC2)cc(O)c1=O` [Compound 790] cannot be ordered by EC50: under 20000 nM for the first, under 20000 nM for the second.

`O=C(O)c1nn(-c2ccc(F)cc2)cc(O)c1=O` [Compound 4] and `O=C(O)c1nn(-c2cc(C(F)(F)F)cc(C(F)(F)F)c2)cc(O)c1=O` [Compound 20] cannot be ordered by EC50: over 100000 nM for the first, over 100000 nM for the second.

For `CNC(=O)c1nn(CC2(c3cn(C)c4ccccc34)CCCC2)cc(O)c1=O` [Compound 830], the EC50 was over 100000 nM.

molecular target: EN PA (Influenza A virus, UniProt P15659); test: EN PA FRET Inhibition Assay; format: biochemical; details: read-out: Potency

`Cc1c(O)c(=O)c(C(=O)O)nn1CCc1ccccc1` [Compound 782] and `CC1(C)CCC(Cn2cc(O)c(=O)c(C(=O)O)n2)(c2ccccc2)C1` (centres unmarked) [Compound 786] cannot be ordered by IC50: under 100 nM for the first, under 100 nM for the second.

`CNC(=O)c1nn(CC2(n3ccc4ccc(C)nc43)CCCC2)cc(O)c1=O` [Compound 853] and `CNC(=O)c1nn(CC2(n3c(C)cc4cccnc43)CCCC2)cc(O)c1=O` [Compound 790] cannot be ordered by IC50: under 100 nM for the first, under 100 nM for the second.

`O=C(O)c1nn(-c2ccc(F)cc2)cc(O)c1=O` [Compound 4] and `O=C(O)c1nn(-c2cc(C(F)(F)F)cc(C(F)(F)F)c2)cc(O)c1=O` [Compound 20] fall in the same range of IC50: 100 to 1000 nM for the first, 100 to 1000 nM for the second.

Molecule `CNC(=O)c1nn(CC2(c3cn(C)c4ccccc34)CCCC2)cc(O)c1=O` [Compound 830] has an IC50 of 100 to 1000 nM.
